Measurements: patent US6737383B1, “Herbicidal oxadiazolidines” (priority 1999, dated 2004)

Assays:
[1] = tested on: cocklebur; test: Test B pre/postemergence cocklebur; type: in vivo, Xanthium strumarium; settings: for Cocklebur plant response rating: Postemergence; for Plant response rating, Cocklebur: Preemergence
Method in brief: (§1)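 Herbicidal effect was estimated by eye on a ten-point control scale after plants spent twelve to sixteen days in a greenhouse following soil or foliar treatment. Foliar sprays targeted plants at one to four leaves; all doses were formulated in a non-phytotoxic solvent with surfactant.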

[2] = tested on: rape; test: Test B pre/postemergence rape; type: in vivo, Brassica napus
Method in brief: as §1

[3] = tested on: soybean; test: Test B pre/postemergence soybean; type: in vivo, Glycine max
Method in brief: as §1

[4] = tested on: velvetleaf; test: Test B pre/postemergence velvetleaf; type: in vivo, Abutilon theophrasti
Method in brief: as §1

[5] = tested on: purple nutsedge; test: Test B pre/postemergence purple nutsedge; type: in vivo, Cyperus rotundus
Method in brief: as §1

[6] = tested on: blackgrass; test: Test B pre/postemergence blackgrass; type: in vivo, Alopecurus myosuroides
Method in brief: as §1

[7] = tested on: morningglory; test: Test B pre/postemergence morningglory; type: in vivo, Ipomoea hederacea; settings: for Morningglory plant response rating: Postemergence; for Plant response rating, Morningglory: Preemergence
Method in brief: as §1

[8] = tested on: duck salad; test: Test B flood test duck salad; type: in vivo, Heteranthera limosa
Method in brief: (§2)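 Plants were grown to the 2-leaf stage before treatment with test chemical, then held in a greenhouse for twelve to sixteen days. Injury was visually rated against untreated controls on a 0–10 scale, where 0 is no effect and 10 is complete control.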

[9] = tested on: corn; test: Test B pre/postemergence corn; type: in vivo, Zea mays; settings: for Corn plant response rating: Postemergence; for Plant response rating, Corn: Preemergence
Method in brief: as §1

[10] = tested on: pigweed; test: Test B pre/postemergence pigweed; type: in vivo, Amaranthus retroflexus
Method in brief: as §1

[11] = tested on: bedstraw; test: Test B pre/postemergence bedstraw; type: in vivo, Galium aparine; settings: for Bedstraw plant response rating: Postemergence; for Plant response rating, Bedstraw: Preemergence
Method in brief: as §1

[12] = tested on: sugar beet; test: Test B pre/postemergence sugar beet; type: in vivo, Beta vulgaris
Method in brief: as §1

[13] = tested on: bamyardgrass; test: Test B flood test barnyardgrass; type: in vivo, Echinochloa crus-galli
Method in brief: as §2

[14] = tested on: smallflower flatsedge; test: Test B flood test smallflower flatsedge; type: in vivo, Cyperus difformis
Method in brief: as §2

[15] = tested on: surinam grass; test: Test B pre/postemergence surinam grass; type: in vivo, Brachiaria decumbens
Method in brief: as §1

[16] = tested on: giant foxtail; test: Test B pre/postemergence giant foxtail; type: in vivo, Setaria faberii
Method in brief: as §1

[17] = Rate 62 g/ha, scale 0 to 10, 0 is no effect, 10 is complete control
[18] = Rate 250 g/ha, scale 0 to 10, 0 no effect, 10 complete control
[19] = Rate 125 g/ha, scale 0 to 10 (0 no effect, 10 complete control)
[20] = Rate 250 g/ha, scale of 0 to 10 where 0 is no effect and 10 is complete control
[21] = Rate 125 g/ha, scale 0 to 10, 0 no effect, 10 complete control
[22] = Rate 500 g/ha, scale 0 to 10, 0 no effect, 10 complete control
[23] = Postemergence, Rate 62 g/ha, scale 0 to 10, 0 is no effect, 10 is complete control
[24] = Postemergence, Rate 250 g/ha, scale 0 to 10, 0 no effect, 10 complete control
[25] = Preemergence, Rate 62 g/ha, scale 0 to 10, 0 is no effect, 10 is complete control
[26] = Preemergence, Rate 125 g/ha, scale 0 to 10 (0 no effect, 10 complete control)
[27] = Preemergence, Rate 250 g/ha, scale of 0 to 10 where 0 is no effect and 10 is complete control
[28] = Preemergence, Rate 500 g/ha, scale 0 (no effect) to 10 (complete control)
[29] = Rate 125 g/ha, Postemergence, scale 0 to 10, 0 no effect, 10 complete control
[30] = Rate 500 g/ha, Postemergence, scale 0 to 10, 0 no effect, 10 complete control
[31] = Rate 125 g/ha, Postemergence section (flood test species), scale 0 to 10, 0 no effect, 10 complete control
[32] = Rate 500 g/ha, listed under Postemergence (flood test species), scale 0 to 10, 0 no effect, 10 complete control
[33] = flood test, listed under Postemergence, Rate 250 g/ha, scale 0 to 10, 0 no effect, 10 complete control

CCc1cccc(C)c1-n1c(=O)on(C(=O)N(c2ccc(F)cc2)C(C)C)c1=O [Compound 52]
Cocklebur plant response rating [1, 17]: 0
Cocklebur plant response rating [1, 18]: 0
Plant response rating, Cocklebur [1, 17]: 0
Plant response rating, Cocklebur [1, 19]: 0
Plant response rating, Cocklebur [1, 20]: 0
Cocklebur plant response rating [1, 21]: 0
Cocklebur plant response rating [1, 22]: 0
Rape plant response rating [2, 23]: 0
Rape plant response rating [2, 24]: 0
Plant response rating, Rape [2, 25]: 0
Plant response rating, Rape [2, 26]: 0
Plant response rating, Rape [2, 27]: 0
Rape plant response rating [2, 28]: 0
Rape plant response rating [2, 29]: 0
Rape plant response rating [2, 30]: 0
Soybean plant response rating [3, 23]: 2
Soybean plant response rating [3, 24]: 2
Plant response rating, Soybean [3, 25]: 0
Plant response rating, Soybean [3, 26]: 0
Plant response rating, Soybean [3, 27]: 0
Soybean plant response rating [3, 28]: 0
Soybean plant response rating [3, 29]: 2
Soybean plant response rating [3, 30]: 2
Velvetleaf plant response rating [4, 23]: 0
Velvetleaf plant response rating [4, 24]: 0
Plant response rating, Velvetleaf [4, 25]: 0
Plant response rating, Velvetleaf [4, 26]: 0
Plant response rating, Velvetleaf [4, 27]: 0
Velvetleaf plant response rating [4, 28]: 0
Velvetleaf plant response rating [4, 29]: 0
Velvetleaf plant response rating [4, 30]: 0
Nutsedge plant response rating [5, 23]: 0
Nutsedge plant response rating [5, 24]: 0
Plant response rating, Nutsedge [5, 25]: 0
Plant response rating, Nutsedge [5, 26]: 0
Plant response rating, Nutsedge [5, 27]: 0
Nutsedge plant response rating [5, 28]: 0
Nutsedge plant response rating [5, 29]: 0
Nutsedge plant response rating [5, 30]: 0
Blackgrass plant response rating [6, 23]: 0
Blackgrass plant response rating [6, 24]: 0
Plant response rating, Blackgrass [6, 25]: 0
Plant response rating, Blackgrass [6, 26]: 0
Plant response rating, Blackgrass [6, 27]: 3
Blackgrass plant response rating [6, 28]: 4
Blackgrass plant response rating [6, 29]: 0
Blackgrass plant response rating [6, 30]: 0
Morningglory plant response rating [7, 17]: 1
Morningglory plant response rating [7, 18]: 1
Plant response rating, Morningglory [7, 17]: 0
Plant response rating, Morningglory [7, 19]: 0
Plant response rating, Morningglory [7, 20]: 0
Morningglory plant response rating [7, 21]: 1
Morningglory plant response rating [7, 22]: 1
Ducksalad plant response rating [8, 23]: 0
Ducksalad plant response rating [8, 31]: 0
Ducksalad plant response rating [8, 32]: 0
Ducksalad plant response rating [8, 33]: 0
Corn plant response rating [9, 17]: 0
Corn plant response rating [9, 18]: 3
Plant response rating, Corn [9, 17]: 0
Plant response rating, Corn [9, 19]: 0
Plant response rating, Corn [9, 20]: 0
Corn plant response rating [9, 21]: 0
Corn plant response rating [9, 22]: 4
Redroot pigweed plant response rating [10, 23]: 0
Redroot pigweed plant response rating [10, 24]: 0
Plant response rating, Redroot pigweed [10, 25]: 0
Plant response rating, Redroot pigweed [10, 26]: 0
Plant response rating, Redroot pigweed [10, 27]: 1
Redroot pigweed plant response rating [10, 28]: 6
Redroot pigweed plant response rating [10, 29]: 0
Redroot pigweed plant response rating [10, 30]: 0
Bedstraw plant response rating [11, 17]: 1
Bedstraw plant response rating [11, 18]: 8
Plant response rating, Bedstraw [11, 17]: 0
Plant response rating, Bedstraw [11, 19]: 0
Plant response rating, Bedstraw [11, 20]: 0
Bedstraw plant response rating [11, 21]: 5
Sugarbeets plant response rating [12, 23]: 0
Sugarbeets plant response rating [12, 24]: 0
Plant response rating, Sugarbeets [12, 25]: 0
Plant response rating, Sugarbeets [12, 26]: 0
Plant response rating, Sugarbeets [12, 27]: 0
Sugarbeets plant response rating [12, 28]: 0
Sugarbeets plant response rating [12, 29]: 0
Sugarbeets plant response rating [12, 30]: 0
Barnyardgrass plant response rating [13, 23]: 0
Barnyardgrass plant response rating [13, 31]: 0
Barnyardgrass plant response rating [13, 32]: 0
Barnyardgrass plant response rating [13, 33]: 0
S. Flatsedge plant response rating [14, 23]: 0
S. Flatsedge plant response rating [14, 31]: 0
S. Flatsedge plant response rating [14, 32]: 0
S. Flatsedge plant response rating [14, 33]: 0
B. signalgrass plant response rating [15, 23]: 0
B. signalgrass plant response rating [15, 24]: 0
Plant response rating, B. signalgrass [15, 25]: 0
Plant response rating, B. signalgrass [15, 26]: 0
Plant response rating, B. signalgrass [15, 27]: 0
B. signalgrass plant response rating [15, 28]: 6
B. signalgrass plant response rating [15, 29]: 0
B. signalgrass plant response rating ([15]; Rate 500 g/ha, Postemergence, scale of 0 to 10 where 0 is no effect and 10 is complete control): 1
Giant foxtail plant response rating [16, 23]: 0
Giant foxtail plant response rating [16, 24]: 3
Plant response rating, Giant foxtail [16, 25]: 3
Plant response rating, Giant foxtail [16, 26]: 5
Plant response rating, Giant foxtail [16, 27]: 7
Giant foxtail plant response rating [16, 28]: 10
Giant foxtail plant response rating [16, 29]: 3
Giant foxtail plant response rating [16, 30]: 4
